Assays:
[1] = tested on: Phytophthora infestans strain 1813E11; assay type: in vivo; settings: 100 ppm
lettuce plants = assay: Phytotoxicity on lettuce plants after spraying; assay type: in vivo; settings: 2.5% pelargonic acid, sprayed until run-off, n = 6, scale 0 to 100%
Experimental: A neutralization reaction was made with pelargonic acid (>97%) and choline hydroxide (45%) based on the titration curve (FIG. 1). Based on the titration curve, a stock solution of choline pelargonate (29.1% PLA (>97%) and 40.4% Choline hydroxide (45%)) was made by mixing 14.55 mL pelargonic acid with 15.25 mL distilled water and afterwards the addition of 20.2 mL choline hydroxide. The choline pelargonate stock solution was diluted in distilled water to obtain a diluted choline pelargonate composition comprising about 2.5% pelargonic acid. The total concentration of choline pelargonate in the water spray solution was 37.08 g a.i./L (a.i.=active ingredient).
The next step was to assess the phytotoxicity of a composition comprising choline pelargonate on lettuce plants. As a control, plants were treated with water. The plants were also treated with a diluted pelargonic acid composition, including a diluted pelargonic acid solution based on the commercial product Beloukha (Belchim Crop Protection).
Lettuce plants were sprayed with a small hand sprayer until run-off with the respective compositions and incubated at 20° C. Each composition was tested with a setup consisting out of six plants. A visual assessment was made on lettuce plants after spraying. The effect of phytotoxicity (necrosis or discolouration) was scored by a scale from 0 to 100%, with 0% no phytotoxicity and 100% fully phytotoxicity on plants.

Rhizoctonia solani = assay: Mycelium growth inhibition on PDA (Example 7); assay type: cell-based; settings: 3 days at 25° C; for Average mycelium diameter: n = 4
Experimental: (§1) Strains used for this trial were kept and refreshed on Potato Dextrose Agar (PDA) at 25° C.
(§2) To begin, a quantity of test product was directly added in a certain volume of PDA (about 20 mL/petri dish) (Table 11). Plugs of agar (diameter 10 mm) from one week-old cultures were placed at the centre of the PDA plates. Each object was performed in 4 repetitions. The petri dishes were then incubated at 25° C. in the dark. After 3 and 6 days of incubation, the diameter of the colonies was measured in 2 perpendicular directions. The percentage of inhibition was calculated for each product/concentration compare to the untreated.

Botrytis cinerea = assay: Mycelium growth inhibition on PDA (Example 7); assay type: cell-based; settings: 3 days at 25° C; for Average mycelium diameter: n = 4
Experimental: as §1, §2

Pythium ultimum = assay: Mycelium growth inhibition on PDA (Example 7); assay type: cell-based; settings: 3 days at 25° C; for Average mycelium diameter: n = 4
Experimental: as §1, §2

Sclerotinia sclerotiorum = assay: Mycelium growth inhibition on PDA (Example 7); assay type: cell-based; settings: 3 days at 25° C; for Average mycelium diameter: n = 4
Experimental: as §1, §2

Sclerotinia minor = assay: Mycelium growth inhibition on PDA (Example 7); assay type: cell-based; settings: 3 days at 25° C; for Average mycelium diameter: n = 4
Experimental: as §1, §2

Plasmopara viticola = Plasmopara viticola grapevine leaf disc test; assay type: in vivo; settings: copper hydroxide 2 g/L, preventive spray; 7 days after the artificial inoculation
Experimental: A stock solution of choline pelargonate (29.1% PLA and 40.4% Choline hydroxide, pH 8.82) was made by mixing 14.55 mL PLA with 15.25 mL distilled water and afterwards the addition of 20.2 mL of Choline hydroxide. The choline pelargonate stock solution (42.04%) was diluted in order to create a solution with a final concentration of choline pelargonate equal to 1 mL/L and 10 mL/L. The two choline pelargonate solutions, water as negative control and copper hydroxide (2 g/L) as positive control were used for this test. For each object 4 Petri plates were prepared and each plate contains 5 grapevine leaf discs (see Table 8 below).
Leaf discs preparation: leaf discs (diameter 19 mm) were prepared from grapevine cuttings (variety Pinot Nero Entav 115) using the young leaves. 5 leaf discs were placed in each Petri Plate on autoclaved paper (4 layers), the paper was previously wetted by adding 8.5 mL of sterile water in each plate. The leaf discs were placed on the paper with the abaxial side upward.
Test products application and pathogen inoculation: leaf discs were treated with the test products at 11.30 A.M (i.e. a preventive application) and the leaves were allowed to dry. The products were sprayed with a small hand sprayer; 5 sprays were applied on each plate. The same day at 16.30 a suspension of P. viticola spores at final concentration of 2*10^5 spore/mL was applied (5 hours after test product application) on the leaf discs. The inoculated plates were incubated overnight in the dark at 25° C. The following day, the leaf discs were dried under the laminar flow and then placed back at 25° C. The disease assessment was done 7 days after the artificial inoculation.

Row | Structure (SMILES) | % efficacy compared to control (Abbott) (Rhizoctonia solani; 0.042% a.i. in PDA) [%] | Average mycelium diameter (Rhizoctonia solani; 0.042% a.i. in PDA) [mm] | % efficacy compared to control (Abbott) (Rhizoctonia solani; 0.42% a.i. in PDA) [%] | Average mycelium diameter (Rhizoctonia solani; 0.42% a.i. in PDA) [mm] | % efficacy compared to control (Abbott) (Botrytis cinerea; 0.042% a.i. in PDA) [%] | Average mycelium diameter (Botrytis cinerea; 0.042% a.i. in PDA) [mm] | % efficacy compared to control (Abbott) (Botrytis cinerea; 0.42% a.i. in PDA) [%] | Average mycelium diameter (Botrytis cinerea; 0.42% a.i. in PDA) [mm] | % efficacy compared to control (Abbott) (Pythium ultimum; 0.042% a.i. in PDA) [%] | Average mycelium diameter (Pythium ultimum; 0.042% a.i. in PDA) [mm] | % efficacy compared to control (Abbott) (Pythium ultimum; 0.42% a.i. in PDA) [%] | Average mycelium diameter (Pythium ultimum; 0.42% a.i. in PDA) [mm] | % efficacy compared to control (Abbott) (Sclerotinia sclerotiorum; 0.042% a.i. in PDA) [%] | Average mycelium diameter (Sclerotinia sclerotiorum; 0.042% a.i. in PDA) [mm] | % efficacy compared to control (Abbott) (Sclerotinia sclerotiorum; 0.42% a.i. in PDA) [%] | Average mycelium diameter (Sclerotinia sclerotiorum; 0.42% a.i. in PDA) [mm] | % efficacy compared to control (Abbott) (Sclerotinia minor; 0.042% a.i. in PDA) [%] | Average mycelium diameter (Sclerotinia minor; 0.042% a.i. in PDA) [mm] | % efficacy compared to control (Abbott) (Sclerotinia minor; 0.42% a.i. in PDA) [%] | Average mycelium diameter (Sclerotinia minor; 0.42% a.i. in PDA) [mm] | also measured
1 | O=[N+]([O-])c1cc(C(F)(F)F)c(Cl)c([N+](=O)[O-])c1Nc1ncc(C(F)(F)F)cc1Cl [Fluazinam] | – | – | – | – | – | – | – | – | – | – | – | – | – | – | – | – | – | – | – | – | Disease severity (%) on potato leaf discs, Mean ([1]; mean of 5 leaf discs, six days after inoculation): 0%; efficacy ([1]; potato leaf discs): 100%; Disease severity (%) on potato leaf discs ([1]; single leaf discs a-e, six days after inoculation): 0%
2 | CCCCCCCCC(=O)O [Pelargonic acid, pelargonic acid, reference compound] | – | – | – | – | – | – | – | – | – | – | – | – | – | – | – | – | – | – | – | – | Phytotoxicity (%) evaluation on lettuce plants (lettuce plants; 0 DAA): 0.00%; Phytotoxicity (%) evaluation on lettuce plants (lettuce plants; 1 DAA): 60.00%; Phytotoxicity (%) evaluation on lettuce plants (lettuce plants; 2 DAA): 60.83%; Phytotoxicity (%) evaluation on lettuce plants (lettuce plants; 7 DAA): 70.00%
3 | CCCCCCCCCC(=O)[O-].C[N+](C)(C)CCO [TMAD, choline decanoate] | 48 | 27.3 ± 6.9 | 99 | 0.4 ± 0.8 | 84 | 7.0 ± 10.7 | 95 | 2.0 ± 4.0 | 100 | 0.0 ± 0.0 | 100 | 0.0 ± 0.0 | 97 | 2.1 ± 1.7 | 100 | 0.0 ± 0.0 | 98 | 1.5 ± 1.8 | 99 | 0.5 ± 0.6 | –
4 | CCCCCCCC(=O)[O-].C[N+](C)(C)CCO [TMAO, choline octanoate] | 64 | 18.9 ± 3.8 | 100 | 0.0 ± 0.0 | 72 | 12.1 ± 11.0 | 100 | 0.0 ± 0.0 | 100 | 0.0 ± 0.0 | 100 | 0.0 ± 0.0 | 98 | 1.3 ± 0.3 | 100 | 0.0 ± 0.0 | 96 | 2.5 ± 2.9 | 100 | 0.0 ± 0.0 | –
5 | [Cu+2].[OH-].[OH-] [copper, copper hydroxide, reference compound] | – | – | – | – | – | – | – | – | – | – | – | – | – | – | – | – | – | – | – | – | disease symptoms on the leaf discs (Plasmopara viticola): did not show any disease symptoms

— US12446577B2 (priority 2018, dated 2025)
